Results on 19 compounds are retold here after patent US20220064167A1, “IMIDAZO-PYRAZOLE CARBOXAMIDE DERIVATIVES AS ANTICANCER AGENTS AND THE SYNTHESIS THEREOF” (AVIDIN KFT., priority 2018, published 2022).

Turning to `CC(C)c1ccc(NC(=O)c2cnn3c(NC(C)(C)CC(C)(C)C)c(C(C)(C)C)[nH]c23)cc1` [Example 42, 2-(Tert-butyl)-N-(4-isopropylphenyl)-3-((2,4,4-trimethylpentan-2-yl)amino)-1H-imidazo[1,2-b]pyrazole-7-carboxamide], the melting point was in the range of 155 to 156 °C.

Consider `CC(C)(C)CC(C)(C)Nc1c(C(C)(C)C)[nH]c2c(C(=O)Nc3ccccc3C(F)(F)F)cnn12` [Example 45, 2-(Tert-butyl)-N-(2-(trifluoromethyl)phenyl)-3-((2,4,4-trimethylpentan-2-yl)amino)-1H-imidazo[1,2-b]pyrazole-7-carboxamide], for which the melting point was 106 °C.

Consider `COC(=O)CNc1c(-c2ccccc2)[nH]c2c(C(N)=O)cnn12` [Example 3, Methyl 2-((7-carbamoyl-2-phenyl-1H-imidazo[1,2-b]pyrazol-3-yl)amino)acetate], for which the melting point lay within 209 to 210 °C.

Compound `NC(=O)c1cnn2c(NC3CCCCC3)c(-c3ccccc3)[nH]c12` [Example 4, 3-(Cyclohexylamino)-2-phenyl-1H-imidazo[1,2-b]pyrazole-7-carboxamide] gave a melting point of 240 to 241 °C.

Regarding `CC(C)(C)CC(C)(C)Nc1c(-c2cccnc2)[nH]c2c(C(N)=O)cnn12` [Example 14, 2-(Pyridin-3-yl)-3-((2,4,4-trimethylpentan-2-yl)amino)-1H-imidazo[1,2-b]pyrazole-7-carboxamide], the melting point was in the range of 226 to 228 °C.

In turn, `COc1ccc(NC(=O)c2cnn3c(NC(C)(C)CC(C)(C)C)c(C(C)(C)C)[nH]c23)c(OC)c1` [Example 44, 2-(Tert-butyl)-N-(2,4-dimethoxyphenyl)-3-((2,4,4-trimethylpentan-2-yl)amino)-1H-imidazo[1,2-b]pyrazole-7-carboxamide] registered a melting point of 127 °C.

In the case of `COc1ccc(Nc2c(-c3ccccc3)[nH]c3c(C(N)=O)cnn23)cc1` [Example 5, 3-((4-Methoxyphenyl)amino)-2-phenyl-1H-imidazo[1,2-b]pyrazole-7-carboxamide], the melting point lay within 229 to 231 °C.

`CC(C)(C)CC(C)(C)Nc1c(C(C)(C)C)[nH]c2c(C(=O)Nc3ccc(F)nc3)cnn12` [Example 73, 2-(Tert-butyl)-N-(6-fluoropyridin-3-yl)-3-((2,4,4-trimethylpentan-2-yl)amino)-1H-imidazo[1,2-b]pyrazole-7-carboxamide] registered a melting point of 177 to 178 °C.

Compound `COC(=O)CNc1c(-c2c(OC)cc(OC)cc2OC)[nH]c2c(C(N)=O)cnn12` [Example 9, Methyl 2-((7-carbamoyl-2-(2,4,6-trimethoxyphenyl)-1H-imidazo[1,2-b]pyrazol-3-yl)amino)acetate] showed a melting point of 226 to 227 °C.

For the compound `CC(C)(C)CC(C)(C)Nc1c(C(C)(C)C)[nH]c2c(C(=O)Nc3ccc(F)cn3)cnn12` [Example 72, 2-(Tert-butyl)-N-(5-fluoropyridin-2-yl)-3-((2,4,4-trimethylpentan-2-yl)amino)-1H-imidazo[1,2-b]pyrazole-7-carboxamide], the melting point is 140 °C.

As for `CC(C)(C)CC(C)(C)Nc1c(-c2ccccc2)[nH]c2c(C(N)=O)cnn12` [Example 2, 2-Phenyl-3-((2,4,4-trimethylpentan-2-yl)amino)-1H-imidazo[1,2-b]pyrazole-7-carbox-amide], the melting point is 154 to 156 °C.

On to `CCCCCCCc1[nH]c2c(C(N)=O)cnn2c1NC(C)(C)C` [Example 17, 3-(Tert-butylamino)-2-heptyl-1H-imidazo[1,2-b]pyrazole-7-carboxamide], for which the melting point is 203 to 204 °C.

Consider `CC(C)(C)CC(C)(C)Nc1c(C(C)(C)C)[nH]c2c(C(=O)NCc3ccc(F)cc3)cnn12` [Example 71, 2-(Tert-butyl)-N-(4-fluorobenzyl)-3-((2,4,4-trimethylpentan-2-yl)amino)-1H-imidazo[1,2-b]pyrazole-7-carboxamide], for which the melting point lay in the range of 163 to 164 °C.

For `CC(C)(C)Nc1c(-c2ccc(F)c(F)c2)[nH]c2c(C(N)=O)cnn12` [Example 13, 3-(Tert-butylamino)-2-(3,4-difluorophenyl)-1H-imidazo[1,2-b]pyrazole-7-carboxamide], the melting point was 256 to 258 °C.

`Cc1cc(C)cc(NC(=O)c2cnn3c(NC(C)(C)CC(C)(C)C)c(C(C)(C)C)[nH]c23)c1` [Example 41, 2-(Tert-butyl)-N-(3,5-dimethylphenyl)-3-((2,4,4-trimethylpentan-2-yl)amino)-1H-imidazo[1,2-b]pyrazole-7-carboxamide] showed a melting point of 180 to 181 °C.

In turn, `CC(C)(C)CC(C)(C)Nc1c(C(C)(C)C)[nH]c2c(C(=O)NC(C)(C)C)cnn12` [Example 30, N,2-Di-tert-butyl-3-((2,4,4-trimethylpentan-2-yl)amino)-1H-imidazo[1,2-b]pyrazole-7-carboxamide] registered a melting point of 177 to 178 °C.

In turn, `CC(C)(C)Nc1c(-c2ccccc2)[nH]c2c(C(N)=O)cnn12` [Example 1, 3-(Tert-butylamino)-2-phenyl-1H-imidazo[1,2-b]pyrazole-7-carboxamide] returned a melting point of 246 to 248 °C.

On to `Cc1nn2c(NC(C)(C)CC(C)(C)C)c(C(C)(C)C)[nH]c2c1C(=O)Nc1ccc(F)cc1` [Example 74, 2-(Tert-butyl)-N-(4-fluorophenyl)-6-methyl-3-((2,4,4-trimethylpentan-2-yl)amino)-1H-imidazo[1,2-b]pyrazole-7-carboxamide], for which the melting point is 179 °C.

`CC(C)(C)CC(C)(C)Nc1c(C(C)(C)C)[nH]c2c(C(=O)NC3CCCC3)cnn12` [Example 32, 2-(Tert-butyl)-N-cyclopentyl-3-((2,4,4-trimethylpentan-2-yl)amino)-1H-imidazo[1,2-b]pyrazole-7-carboxamide]: the melting point fell in the range of 182 to 183 °C.
